One data set concerns the target T1, human CCK2R (Homo sapiens, UniProt P32239).
T1 construct: expressed in transfected cells; host or cells: A431 human epidermoid carcinoma cells (A431-CCK2R), plasmid pCR3.1, provided by Dr. Luigi Aloj
T1 sequence (P32239 1-447): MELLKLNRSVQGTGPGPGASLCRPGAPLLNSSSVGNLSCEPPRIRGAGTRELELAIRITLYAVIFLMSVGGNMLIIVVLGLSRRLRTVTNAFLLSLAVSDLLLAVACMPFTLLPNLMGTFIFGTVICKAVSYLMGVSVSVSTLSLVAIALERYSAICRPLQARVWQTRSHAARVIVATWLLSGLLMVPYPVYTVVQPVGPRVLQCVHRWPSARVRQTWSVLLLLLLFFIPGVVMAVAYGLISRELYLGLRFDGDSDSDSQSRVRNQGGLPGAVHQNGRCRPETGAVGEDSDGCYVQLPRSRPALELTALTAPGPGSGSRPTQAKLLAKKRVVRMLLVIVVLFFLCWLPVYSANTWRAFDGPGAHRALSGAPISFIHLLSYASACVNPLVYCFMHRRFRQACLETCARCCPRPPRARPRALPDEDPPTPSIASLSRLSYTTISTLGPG
In words: CCK2R competition binding assay against [125I]Tyr12-gastrin-I on A431-CCK2R cells. The settings on record: displacement of [125I]Tyr12-gastrin-I, A431-CCK2R cells, 1 h at RT; read-out: IC50. The procedure: Affinity for CCK2R was studied in A431 human epidermoid carcinoma cells stably transfected with the plasmid pCR3.1 containing the full coding sequence for the human CCK2R (A431-CCK2R) kindly provided by Dr. Luigi Aloj (Aloj L et al., J Nucl Med 2004, 45: 485-494). […] Radioiodination of gastrin-1 was carried out using the chloramine-T method. Non-carrier-added [^125I-Tyr^12]gastrind was obtained by HPLC purification and stored in aliquots at −20° C. Binding assays were carried out in 96-well filter plates (MultiScreenHTS-FB, Merck Group, Darmstadt, Germany) pretreated with 10 mM TRIS/139 mM NaCl pH 7.4 (2×250 μl). For the assay a number of 200,000-400,000 A431-CCK2R cells per well was prepared in 35 mM HEPES buffer pH 7.4 containing 10 mM MgCl2, 14 μM bacitracin and 0.5% BSA (a hypotonic solution disturbing the integrity of the cell membranes). The cells were incubated in triplicates with increasing concentrations of the peptidomimetics (0.0003 to 10,000 nM, for example 0.001 to 1000 nM) and [^125I-Tyr^12]gastrin-I (20,000-60,000 cpm) for 1 h at RT. Incubation was interrupted by filtration of the medium and rapid rinsing with ice-cold 10 mM TRIS/139 mM NaCl pH 7.4 (2×200 μl) and the filters were counted in the gamma-counter. Half maximal inhibitory concentration (IC50) values were calculated following nonlinear regression with Origin software (Microcal Origin 6.1, Northampton, MA) and a representative assay was chosen for comparison.
A general note: Loss of bound radioactivity is the signal in a displacement assay; it reports binding, not function.

For data set [1] the following is noted: cited from earlier work.

Where a SMILES comes first, the peptide text is derived from it. [ ]: non-standard residue; d: D form. The star is where a group is joined. DOTA = O=C(O)CN1CCN(CC(=O)O)CCN(CC(=O)*)CCN(CC(=O)O)CC1

Broadly, the IC50 is the concentration that gives 50% inhibition. As to `CSCC[C@H](NC(=O)[C@H](Cc1c[nH]c2ccccc12)NC(=O)CNC(=O)[C@H](Cc1ccc(O)cc1)NC(=O)[C@H](C)NC(=O)[C@@H](CCC(=O)O)NC(=O)CN1CCN(CC(=O)O)CCN(CC(=O)O)CCN(CC(=O)O)CC1)C(=O)N[C@@H](CC(=O)O)C(=O)N[C@@H](Cc1ccccc1)C(N)=O` [DOTA-MG11, [1,4,7,10-tetraazacyclodocecan-1,4,7,10-tetraacetic acid^0,D-Glu^1,DesGlu^2-6]minigastrin, reference compound] ({DOTA}-[dE]AYGWMDF-NH2), the IC50 at human CCK2R stood at 0.9 ± 0.5 nM. In addition, in data set [1], the “biological half-life in vivo” value was “below five”.
